We go through 7 molecules from patent US6339045B1, “N-(unsubstituted or substituted)-4-substituted-6-(unsubstituted or substituted)phenoxy-2-pyridinecarboxamides or thiocarboxamides, processes for producing the same, and herbicides” (Kureha Kagaku Kogyo Kabushiki Kaisha, priority 1995, dated 2002).

Common to all, as to assay: Herbicidal effect by foliage and soil treatment
What all share (type): in vivo
Holding throughout (conditions): 10 g ai/10a, evaluated after 14 days

The test system of assay [1] is cleavers (Galium aparine). A digest of the protocol: (§1)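 Post-emergence spray, cotyledon to bifoliate stage; Tween 20/water vehicle, fixed dose per area; greenhouse 19–25 °C; 14 d; visual growth rating vs untreated.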
The subject of assay [2] is velvetleaf (Abutilon theophrasti). Put shortly:
as §1

In assay [3] the test system is black nightshade (Solanum nigrum). Put shortly:
as §1

In assay [4] the test system is common blackjack (Bidens pilosa). Put shortly: as §1
Assay [5] concerns field bindweed (Convolvulus arvensis). A digest of the protocol: as §1
The test system of assay [6] is common chickweed (Stellaria media). Put shortly: as §1
The subject of assay [7] is redroot pigweed (Amaranthus retroflexus). Put shortly:
as §1

The test system of assay [8] is sicklepod (Cassia obtusifolia). Put shortly: as §1
Assay [9] concerns ivyleafspeedwell (Veronica hederaefolia). Put shortly:
as §1

Assay [10] has as its system kediock (Sinapis arvensis). Put shortly: as §1
Assay [11] deals with wild chamomile (Matricaria chamomilla). Put shortly: as §1

On to `CCOc1cc(Oc2cccc(C(F)(F)F)c2)nc(C(=O)NC(C)C)c1` [Compound I-59], for which the “herbicidal activity rating, GA (Galium aparine)” value (shortened to “herbicidal activity rating, GA”) in assay [1] is 5 (percentage of weeds killed was not less than 80%). Further, the “herbicidal activity rating, AT (Abutilon theophrasti)” value in assay [2] is 4 (percentage of weeds killed was not less than 60% and less than 80%). In addition, the “herbicidal activity rating, SN (Solanum nigrum)” value (from here on “herbicidal activity rating, SN”) in assay [3] is 5 (percentage of weeds killed was not less than 80%). The “herbicidal activity rating, BP (Bidens pilosa)” value (“herbicidal activity rating, BP” for short) in [4] is 3 (percentage of weeds killed was not less than 40% and less than 60%). Besides, in assay [5], the “herbicidal activity rating, CA (Convolvulus arvensis)” value (shortened to “herbicidal activity rating, CA”) is 4 (percentage of weeds killed was not less than 60% and less than 80%). The “herbicidal activity rating, SM (Stellaria media)” value (from here on “herbicidal activity rating, SM”) in assay [6] is on record as 5 (percentage of weeds killed was not less than 80%). Besides, the “herbicidal activity rating, AR (Amaranthus retroflexus)” value (shortened to “herbicidal activity rating, AR”) in [7] is reported as 5 (percentage of weeds killed was not less than 80%). The “herbicidal activity rating, CO (Cassia obtusifolia)” value (from here on “herbicidal activity rating, CO”) in assay [8] is given as 5 (percentage of weeds killed was not less than 80%). The “herbicidal activity rating, VH (Veronica hederaefolia)” value (“herbicidal activity rating, VH” for short) in [9] is on record as 5 (percentage of weeds killed was not less than 80%). Besides, the “herbicidal activity rating, SA (Sinapis arvensis)” value (shortened to “herbicidal activity rating, SA”) in assay [10] is reported as 5 (percentage of weeds killed was not less than 80%). For the same molecule, in assay [11], the “herbicidal activity rating, MC (Matricaria chamomilla)” value (from here on “herbicidal activity rating, MC”) was 4 (percentage of weeds killed was not less than 60% and less than 80%).

For the molecule `COc1cc(Oc2cccc(C(F)(F)F)c2)nc(C(=O)NOCCF)c1` [Compound I-102], in [1], the “herbicidal activity rating, GA” value is 5 (percentage of weeds killed was not less than 80%). For the same molecule, the “herbicidal activity rating, AT (Abutilon theophrasti)” value in assay [2] was 4 (percentage of weeds killed was not less than 60% and less than 80%). In assay [3], the “herbicidal activity rating, SN” value is listed as 5 (percentage of weeds killed was not less than 80%). Also, the “herbicidal activity rating, BP” value in assay [4] was 5 (percentage of weeds killed was not less than 80%). Further, the “herbicidal activity rating, CA” value in assay [5] is 4 (percentage of weeds killed was not less than 60% and less than 80%). Besides, the “herbicidal activity rating, SM” value in assay [6] is 4 (percentage of weeds killed was not less than 60% and less than 80%). For the same molecule, the “herbicidal activity rating, AR” value in [7] was 5 (percentage of weeds killed was not less than 80%). The “herbicidal activity rating, CO” value in assay [8] is reported as 5 (percentage of weeds killed was not less than 80%). The “herbicidal activity rating, VH” value in assay [9] was 5 (percentage of weeds killed was not less than 80%). Further, in [10], the “herbicidal activity rating, SA” value is given as 5 (percentage of weeds killed was not less than 80%). Also, the “herbicidal activity rating, MC” value in assay [11] was 3 (percentage of weeds killed was not less than 40% and less than 60%).

As for `COc1cc(Oc2cccc(C(F)(F)F)c2)nc(C(=O)NCC2CC2)c1` [Compound I-85], in [1], the “herbicidal activity rating, GA” value is 5 (percentage of weeds killed was not less than 80%). Besides, in [2], the “herbicidal activity rating, AT (Abutilon theophrasti)” value is 5 (percentage of weeds killed was not less than 80%). In addition, in [3], the “herbicidal activity rating, SN” value is listed as 5 (percentage of weeds killed was not less than 80%). In addition, the “herbicidal activity rating, BP” value in assay [4] was 4 (percentage of weeds killed was not less than 60% and less than 80%). Also, the “herbicidal activity rating, CA” value in [5] is 4 (percentage of weeds killed was not less than 60% and less than 80%). Moreover, in [6], the “herbicidal activity rating, SM” value is given as 5 (percentage of weeds killed was not less than 80%). In assay [7], the “herbicidal activity rating, AR” value is 5 (percentage of weeds killed was not less than 80%). Further, in assay [8], the “herbicidal activity rating, CO” value was 5 (percentage of weeds killed was not less than 80%). Also, the “herbicidal activity rating, VH” value in assay [9] is on record as 5 (percentage of weeds killed was not less than 80%). Besides, the “herbicidal activity rating, SA” value in assay [10] is 5 (percentage of weeds killed was not less than 80%). The “herbicidal activity rating, MC” value in [11] is listed as 5 (percentage of weeds killed was not less than 80%).

On to `COc1cc(Oc2cccc(C(F)(F)F)c2)nc(C(=O)NC2CC2)c1` [Compound I-48, N-cyclopropyl-4-methoxy-6-{3-(trifluoromethyl)phenoxy}-2-pyridine carboxamide], for which the “herbicidal activity rating, GA” value in assay [1] is 5 (percentage of weeds killed was not less than 80%). Moreover, in [2], the “herbicidal activity rating, AT (Abutilon theophrasti)” value was 5 (percentage of weeds killed was not less than 80%). Further, the “herbicidal activity rating, SN” value in assay [3] is 5 (percentage of weeds killed was not less than 80%). Further, the “herbicidal activity rating, BP” value in assay [4] is 4 (percentage of weeds killed was not less than 60% and less than 80%). Also, in [5], the “herbicidal activity rating, CA” value is given as 5 (percentage of weeds killed was not less than 80%). For the same molecule, the “herbicidal activity rating, SM” value in [6] is recorded as 5 (percentage of weeds killed was not less than 80%). The “herbicidal activity rating, AR” value in [7] was 5 (percentage of weeds killed was not less than 80%). Further, the “herbicidal activity rating, CO” value in assay [8] is recorded as 5 (percentage of weeds killed was not less than 80%). In assay [9], the “herbicidal activity rating, VH” value is reported as 5 (percentage of weeds killed was not less than 80%). Moreover, in assay [10], the “herbicidal activity rating, SA” value is 5 (percentage of weeds killed was not less than 80%). In addition, the “herbicidal activity rating, MC” value in assay [11] is listed as 5 (percentage of weeds killed was not less than 80%).

On to `CCOCONC(=O)c1cc(OC)cc(Oc2cccc(C(F)(F)F)c2)n1` [Compound I-105], for which the “herbicidal activity rating, GA” value in assay [1] was 5 (percentage of weeds killed was not less than 80%). In addition, in assay [2], the “herbicidal activity rating, AT (Abutilon theophrasti)” value is 4 (percentage of weeds killed was not less than 60% and less than 80%). The “herbicidal activity rating, SN” value in assay [3] is on record as 5 (percentage of weeds killed was not less than 80%). In addition, the “herbicidal activity rating, BP” value in assay [4] was 4 (percentage of weeds killed was not less than 60% and less than 80%). For the same molecule, in [5], the “herbicidal activity rating, CA” value was 4 (percentage of weeds killed was not less than 60% and less than 80%). In addition, the “herbicidal activity rating, SM” value in [6] is 4 (percentage of weeds killed was not less than 60% and less than 80%). In addition, the “herbicidal activity rating, AR” value in assay [7] is 5 (percentage of weeds killed was not less than 80%). The “herbicidal activity rating, CO” value in assay [8] was 5 (percentage of weeds killed was not less than 80%). Also, the “herbicidal activity rating, VH” value in assay [9] is given as 5 (percentage of weeds killed was not less than 80%). Further, in assay [10], the “herbicidal activity rating, SA” value is on record as 5 (percentage of weeds killed was not less than 80%). In addition, the “herbicidal activity rating, MC” value in assay [11] is 3 (percentage of weeds killed was not less than 40% and less than 60%).

Turning to `COc1cc(Oc2cccc(C(F)(F)F)c2)nc(C(=O)NC2CCCCC2)c1` [Compound I-43], the “herbicidal activity rating, GA” value in assay [1] was 5 (percentage of weeds killed was not less than 80%). Moreover, the “herbicidal activity rating, AT (Abutilon theophrasti)” value in assay [2] was 4 (percentage of weeds killed was not less than 60% and less than 80%). For the same molecule, the “herbicidal activity rating, SN” value in assay [3] was 5 (percentage of weeds killed was not less than 80%). In assay [4], the “herbicidal activity rating, BP” value is 4 (percentage of weeds killed was not less than 60% and less than 80%). For the same molecule, in [5], the “herbicidal activity rating, CA” value is 5 (percentage of weeds killed was not less than 80%). For the same molecule, in [6], the “herbicidal activity rating, SM” value is 5 (percentage of weeds killed was not less than 80%). The “herbicidal activity rating, AR” value in assay [7] was 5 (percentage of weeds killed was not less than 80%). In addition, in assay [8], the “herbicidal activity rating, CO” value is listed as 5 (percentage of weeds killed was not less than 80%). In addition, in [9], the “herbicidal activity rating, VH” value was 5 (percentage of weeds killed was not less than 80%). Besides, the “herbicidal activity rating, SA” value in [10] is listed as 5 (percentage of weeds killed was not less than 80%). Also, the “herbicidal activity rating, MC” value in assay [11] is 4 (percentage of weeds killed was not less than 60% and less than 80%).

On to `CCCCNC(=O)c1cc(OC)cc(Oc2cccc(C(F)(F)F)c2)n1` [Compound I-36], for which the “herbicidal activity rating, GA” value in assay [1] was 5 (percentage of weeds killed was not less than 80%). In addition, the “herbicidal activity rating, AT (Abutilon theophrasti)” value in assay [2] is 4 (percentage of weeds killed was not less than 60% and less than 80%). In [3], the “herbicidal activity rating, SN” value is reported as 5 (percentage of weeds killed was not less than 80%). The “herbicidal activity rating, BP” value in assay [4] is recorded as 5 (percentage of weeds killed was not less than 80%). Besides, the “herbicidal activity rating, CA” value in assay [5] is given as 5 (percentage of weeds killed was not less than 80%). In addition, the “herbicidal activity rating, SM” value in assay [6] is 5 (percentage of weeds killed was not less than 80%). Moreover, the “herbicidal activity rating, AR” value in assay [7] is listed as 5 (percentage of weeds killed was not less than 80%). Further, the “herbicidal activity rating, CO” value in [8] was 5 (percentage of weeds killed was not less than 80%). For the same molecule, the “herbicidal activity rating, VH” value in [9] was 5 (percentage of weeds killed was not less than 80%). Moreover, the “herbicidal activity rating, SA” value in assay [10] is recorded as 5 (percentage of weeds killed was not less than 80%). Further, the “herbicidal activity rating, MC” value in [11] is recorded as 5 (percentage of weeds killed was not less than 80%).
